Measured values published in PubChem BioAssay (NCI).
Several values for one entry are separate records, joined by “and”; a condition that tells them apart may be missing. Equal entries are not always repeated.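 Results reflect a 48-hour exposure of cells in 96-well plates to compound at five concentrations. GI50 = concentration required for 50% inhibition of growth. Definition used: TGI = concentration required for complete inhibition of growth.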

Experiments:
Test in all cases: growth of human tumour cells (NCI), 48 h
[1] = tested on: NCI-H460 lung
[2] = tested on: UACC-62 melanoma
[3] = tested on: SF-268 CNS
[4] = tested on: MCF7 breast
[5] = tested on: SF-539 CNS
[6] = tested on: TK-10 renal
[7] = tested on: SNB-19 CNS
[8] = tested on: HS 578T breast
[9] = tested on: DU-145 prostate
[10] = tested on: NCI-H226 lung

SMILES	GI50 [1] [µM]	TGI [1] [µM]	GI50 [2] [µM]	TGI [2] [µM]	GI50 [3] [µM]	TGI [3] [µM]	GI50 [4] [µM]	TGI [4] [µM]	GI50 [5] [µM]	TGI [5] [µM]	GI50 [6] [µM]	TGI [6] [µM]	GI50 [7] [µM]	TGI [7] [µM]	GI50 [8] [µM]	TGI [8] [µM]	GI50 [9] [µM]	TGI [9] [µM]	GI50 [10]	TGI [10]
N=C1C(c2nc3ccccc3s2)=C(O)CN1c1cc(Cl)cc(Cl)c1	18.5	> 100	> 100	> 100	32.3	> 100	> 100	> 100	34.3	> 100	> 100	> 100	> 100	> 100	16.1	64.8	> 100	> 100	> 100 µM	> 100 µM
COc1cc(/C=C/c2ccccn2)cc(OC)c1OC	–	> 10	–	> 10	–	> 10	–	> 10	–	> 10	–	> 10	–	> 10	–	> 10	–	> 10	–	> 10 µM
O=c1[nH]c(SCc2ccccc2[N+](=O)[O-])nc2nc[nH]c12	–	> 100	–	> 100	–	> 100	–	> 100	–	> 100	–	> 100	–	> 100	–	> 100	–	> 100	84.7 µM and 33.4 µM	> 100 µM and 98.3 µM
Cn1cc(C2=C(c3c(S(C)=O)n(C)c4ccccc34)C(=O)NC2=O)c2ccccc21 (stereo unspecified)	5.83	> 25	14.2	> 25	11.7	> 25	6.33	> 25	6.35	> 20.1	6.26	> 25	25	> 25	5.57	24.9	8.9	> 25	8.04 µM	> 25 µM
Cc1cc(C#Cc2ccccc2)ccc1-n1c(/C=C/c2cc(O)ccc2O)nc2ccccc2c1=O	1.57	2.91	1.52	2.86	1.31	3.07	1.45	2.87	1.6	3.44	2.03	5.61	1.62	3.18	1.54	7.95	0.419	1.62	1.52 µM	3.93 µM
OCc1ccc(N(Cc2ccc(F)cc2)CC2CCC2)cc1Cl	3.17	15	1.57	8.34	17.1	32.1	3.25	16.3	16.3	30.4	0.705	3.65	14	27.3	17.3	40.3	15	28.5	0.178 µM	0.525 µM
CC/C(=N/N=C(N)N)c1ccc(NC(=O)Nc2ccc(/C(CC)=N/N=C(N)N)cc2)cc1	4.1	> 100	5.13	22.7	12.8	> 100	3.13	> 100	8.04	35.9	2.31	9.96	8.55	85	22.6	> 100	5.02	30.5	10.8 µM	39.8 µM
